In assay [1] the target is human Duox1 (Homo sapiens, UniProt Q9NRD9). The assay can be described thus: ROS chemiluminescence with Drosophila membranes expressing human Duox1. Format: biochemical.
Assay [2] deals with human Duox2 (Homo sapiens, UniProt Q9NRD8). The assay can be described thus: ROS chemiluminescence with Drosophila membranes expressing human Duox2. Format: biochemical.
Assay [3] addresses T1, human Nox1 (Homo sapiens, UniProt Q9Y5S8).
T1 sequence (Q9Y5S8 1-564): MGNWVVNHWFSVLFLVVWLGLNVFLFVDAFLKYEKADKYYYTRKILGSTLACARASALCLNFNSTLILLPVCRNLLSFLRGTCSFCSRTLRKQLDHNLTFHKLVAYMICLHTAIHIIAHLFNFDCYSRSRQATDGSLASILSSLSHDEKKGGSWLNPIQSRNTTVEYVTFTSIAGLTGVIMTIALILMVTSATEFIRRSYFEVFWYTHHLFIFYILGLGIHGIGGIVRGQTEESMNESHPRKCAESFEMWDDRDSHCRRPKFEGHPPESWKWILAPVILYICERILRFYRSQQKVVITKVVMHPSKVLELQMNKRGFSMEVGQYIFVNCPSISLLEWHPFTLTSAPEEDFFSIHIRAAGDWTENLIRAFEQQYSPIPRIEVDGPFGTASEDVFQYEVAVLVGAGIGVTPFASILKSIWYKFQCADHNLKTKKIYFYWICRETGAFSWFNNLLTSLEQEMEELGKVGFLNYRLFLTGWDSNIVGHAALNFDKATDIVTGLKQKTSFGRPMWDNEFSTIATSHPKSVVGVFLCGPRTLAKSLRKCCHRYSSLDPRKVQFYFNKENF
The assay can be described thus: ROS chemiluminescence with Drosophila membranes expressing human Nox1. Format: biochemical.

Assay [4] has as its target T2, human Nox2 (Homo sapiens, UniProt P04839).
T2 construct: gene CYBB
T2 sequence (P04839 2-570): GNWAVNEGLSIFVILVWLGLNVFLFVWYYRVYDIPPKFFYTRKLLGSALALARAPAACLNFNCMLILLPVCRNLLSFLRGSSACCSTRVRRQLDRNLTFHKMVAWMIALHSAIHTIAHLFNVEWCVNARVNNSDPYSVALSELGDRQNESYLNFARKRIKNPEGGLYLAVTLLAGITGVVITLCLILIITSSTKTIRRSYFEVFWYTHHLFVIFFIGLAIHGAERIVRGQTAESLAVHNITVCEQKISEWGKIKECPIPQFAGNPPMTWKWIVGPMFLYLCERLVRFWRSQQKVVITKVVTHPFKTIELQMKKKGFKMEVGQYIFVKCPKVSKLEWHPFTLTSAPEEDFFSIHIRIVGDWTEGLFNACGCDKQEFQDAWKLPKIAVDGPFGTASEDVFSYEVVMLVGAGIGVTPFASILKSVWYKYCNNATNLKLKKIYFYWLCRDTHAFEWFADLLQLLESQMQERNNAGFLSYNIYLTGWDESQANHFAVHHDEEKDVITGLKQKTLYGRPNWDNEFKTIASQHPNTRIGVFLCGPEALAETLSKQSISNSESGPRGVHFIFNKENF
The assay can be described thus: ROS chemiluminescence with Drosophila membranes expressing human Nox2. Format: biochemical.

Assay [5] has as its target T3, human Nox4 (Homo sapiens, UniProt Q9NPH5).
T3 sequence (Q9NPH5 1-578): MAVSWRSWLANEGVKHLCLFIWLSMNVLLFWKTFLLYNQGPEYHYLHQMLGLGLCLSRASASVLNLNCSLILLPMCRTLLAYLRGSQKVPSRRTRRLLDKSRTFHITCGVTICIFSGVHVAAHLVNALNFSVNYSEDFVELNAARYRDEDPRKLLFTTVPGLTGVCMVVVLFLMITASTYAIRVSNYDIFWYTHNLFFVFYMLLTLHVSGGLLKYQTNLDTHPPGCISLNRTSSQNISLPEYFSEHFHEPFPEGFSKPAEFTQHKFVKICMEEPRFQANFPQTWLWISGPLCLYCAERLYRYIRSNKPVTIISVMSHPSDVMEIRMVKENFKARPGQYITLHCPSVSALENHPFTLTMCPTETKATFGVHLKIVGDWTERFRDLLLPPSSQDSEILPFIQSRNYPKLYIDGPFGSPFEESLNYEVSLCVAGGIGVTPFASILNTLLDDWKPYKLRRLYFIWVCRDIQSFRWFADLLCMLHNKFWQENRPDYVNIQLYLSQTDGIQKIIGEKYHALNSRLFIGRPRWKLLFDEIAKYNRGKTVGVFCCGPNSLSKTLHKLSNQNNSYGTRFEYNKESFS
The assay can be described thus: ROS chemiluminescence with Drosophila membranes expressing human Nox4. In kind it is biochemical.

Assay [6] has as its target T4, human Nox5 (Homo sapiens, UniProt Q96PH1).
T4 sequence (Q96PH1 1-765): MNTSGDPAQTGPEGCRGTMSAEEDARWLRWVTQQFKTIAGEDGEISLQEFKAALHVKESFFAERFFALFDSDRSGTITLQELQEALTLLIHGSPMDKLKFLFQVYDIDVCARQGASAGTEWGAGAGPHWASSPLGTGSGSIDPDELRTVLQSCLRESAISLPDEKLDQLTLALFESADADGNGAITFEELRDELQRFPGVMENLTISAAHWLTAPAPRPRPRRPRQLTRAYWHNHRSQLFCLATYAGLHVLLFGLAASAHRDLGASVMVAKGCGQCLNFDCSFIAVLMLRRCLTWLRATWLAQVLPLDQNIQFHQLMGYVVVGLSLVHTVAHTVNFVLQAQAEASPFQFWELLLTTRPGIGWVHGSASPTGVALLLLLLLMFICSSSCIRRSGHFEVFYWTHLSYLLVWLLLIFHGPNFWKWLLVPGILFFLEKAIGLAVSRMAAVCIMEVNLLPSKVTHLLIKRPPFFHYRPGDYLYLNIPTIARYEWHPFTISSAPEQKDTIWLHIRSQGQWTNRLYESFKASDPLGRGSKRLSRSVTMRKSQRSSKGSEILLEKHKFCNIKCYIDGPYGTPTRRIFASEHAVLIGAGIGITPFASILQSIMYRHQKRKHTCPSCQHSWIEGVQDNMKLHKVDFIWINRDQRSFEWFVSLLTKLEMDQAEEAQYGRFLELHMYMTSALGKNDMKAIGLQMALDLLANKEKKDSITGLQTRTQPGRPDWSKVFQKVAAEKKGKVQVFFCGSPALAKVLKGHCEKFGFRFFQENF
The assay can be described thus: ROS chemiluminescence with Drosophila membranes expressing human Nox5. In kind it is biochemical.

For assay [7], the target named is T2, human Nox2. The assay can be described thus: lucigenin chemiluminescence with Drosophila membranes expressing human Nox2. In kind it is cell-based.
The target of assay [8] is T3, human Nox4. The assay can be described thus: lucigenin chemiluminescence with Drosophila membranes expressing human Nox4. Format: cell-based.
The target of assay [9] is T1, human Nox1.

This note sets out measurements from publication PMC12622451, “NADPH Oxidase Inhibition Promotes Brain Resilience by Attenuating Tauopathy and Neuroinflammation in Alzheimer's Disease” (Advanced Science, 2025).

In general, IC50 refers to the concentration that inhibits the measured activity by half.

human Duox2, sequence (Q9NRD8 26-1548): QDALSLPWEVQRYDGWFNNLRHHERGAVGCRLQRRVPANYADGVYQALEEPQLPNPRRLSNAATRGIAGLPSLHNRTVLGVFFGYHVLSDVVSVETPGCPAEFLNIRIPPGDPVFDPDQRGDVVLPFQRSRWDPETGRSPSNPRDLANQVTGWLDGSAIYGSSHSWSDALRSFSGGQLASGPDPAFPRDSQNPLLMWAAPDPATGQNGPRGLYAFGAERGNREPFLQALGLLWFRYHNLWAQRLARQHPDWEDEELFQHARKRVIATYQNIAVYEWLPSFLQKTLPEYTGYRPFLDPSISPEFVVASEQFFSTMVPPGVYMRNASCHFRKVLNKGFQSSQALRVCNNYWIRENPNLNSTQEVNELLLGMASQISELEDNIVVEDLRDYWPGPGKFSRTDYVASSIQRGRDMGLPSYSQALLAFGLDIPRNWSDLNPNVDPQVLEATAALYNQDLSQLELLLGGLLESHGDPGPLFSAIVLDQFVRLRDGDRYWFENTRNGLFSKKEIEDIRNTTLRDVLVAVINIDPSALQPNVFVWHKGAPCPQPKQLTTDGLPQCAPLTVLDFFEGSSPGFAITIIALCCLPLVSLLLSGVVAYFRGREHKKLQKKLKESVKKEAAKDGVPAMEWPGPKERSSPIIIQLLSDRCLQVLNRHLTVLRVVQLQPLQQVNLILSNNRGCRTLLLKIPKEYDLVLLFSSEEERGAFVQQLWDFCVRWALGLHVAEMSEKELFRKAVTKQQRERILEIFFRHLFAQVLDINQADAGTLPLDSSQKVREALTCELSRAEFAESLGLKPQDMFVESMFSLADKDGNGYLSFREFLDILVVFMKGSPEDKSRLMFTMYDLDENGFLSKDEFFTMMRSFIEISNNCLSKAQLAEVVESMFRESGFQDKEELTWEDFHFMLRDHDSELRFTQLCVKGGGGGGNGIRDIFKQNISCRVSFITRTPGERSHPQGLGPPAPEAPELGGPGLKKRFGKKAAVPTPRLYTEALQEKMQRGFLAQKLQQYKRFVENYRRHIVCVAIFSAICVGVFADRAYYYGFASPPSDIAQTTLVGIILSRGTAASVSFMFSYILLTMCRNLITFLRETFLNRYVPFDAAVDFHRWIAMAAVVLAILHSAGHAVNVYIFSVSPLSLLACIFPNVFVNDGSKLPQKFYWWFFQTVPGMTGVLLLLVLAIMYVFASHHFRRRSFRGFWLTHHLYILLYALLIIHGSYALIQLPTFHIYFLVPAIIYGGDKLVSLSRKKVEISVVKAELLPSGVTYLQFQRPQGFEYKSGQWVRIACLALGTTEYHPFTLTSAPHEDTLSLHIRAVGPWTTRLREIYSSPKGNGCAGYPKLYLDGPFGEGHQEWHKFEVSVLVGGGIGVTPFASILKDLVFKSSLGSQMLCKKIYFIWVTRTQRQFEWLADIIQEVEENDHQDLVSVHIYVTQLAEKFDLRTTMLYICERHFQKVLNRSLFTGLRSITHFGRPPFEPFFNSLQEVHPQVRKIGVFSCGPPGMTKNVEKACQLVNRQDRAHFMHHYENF
human Duox1, sequence (Q9NRD9 22-1551): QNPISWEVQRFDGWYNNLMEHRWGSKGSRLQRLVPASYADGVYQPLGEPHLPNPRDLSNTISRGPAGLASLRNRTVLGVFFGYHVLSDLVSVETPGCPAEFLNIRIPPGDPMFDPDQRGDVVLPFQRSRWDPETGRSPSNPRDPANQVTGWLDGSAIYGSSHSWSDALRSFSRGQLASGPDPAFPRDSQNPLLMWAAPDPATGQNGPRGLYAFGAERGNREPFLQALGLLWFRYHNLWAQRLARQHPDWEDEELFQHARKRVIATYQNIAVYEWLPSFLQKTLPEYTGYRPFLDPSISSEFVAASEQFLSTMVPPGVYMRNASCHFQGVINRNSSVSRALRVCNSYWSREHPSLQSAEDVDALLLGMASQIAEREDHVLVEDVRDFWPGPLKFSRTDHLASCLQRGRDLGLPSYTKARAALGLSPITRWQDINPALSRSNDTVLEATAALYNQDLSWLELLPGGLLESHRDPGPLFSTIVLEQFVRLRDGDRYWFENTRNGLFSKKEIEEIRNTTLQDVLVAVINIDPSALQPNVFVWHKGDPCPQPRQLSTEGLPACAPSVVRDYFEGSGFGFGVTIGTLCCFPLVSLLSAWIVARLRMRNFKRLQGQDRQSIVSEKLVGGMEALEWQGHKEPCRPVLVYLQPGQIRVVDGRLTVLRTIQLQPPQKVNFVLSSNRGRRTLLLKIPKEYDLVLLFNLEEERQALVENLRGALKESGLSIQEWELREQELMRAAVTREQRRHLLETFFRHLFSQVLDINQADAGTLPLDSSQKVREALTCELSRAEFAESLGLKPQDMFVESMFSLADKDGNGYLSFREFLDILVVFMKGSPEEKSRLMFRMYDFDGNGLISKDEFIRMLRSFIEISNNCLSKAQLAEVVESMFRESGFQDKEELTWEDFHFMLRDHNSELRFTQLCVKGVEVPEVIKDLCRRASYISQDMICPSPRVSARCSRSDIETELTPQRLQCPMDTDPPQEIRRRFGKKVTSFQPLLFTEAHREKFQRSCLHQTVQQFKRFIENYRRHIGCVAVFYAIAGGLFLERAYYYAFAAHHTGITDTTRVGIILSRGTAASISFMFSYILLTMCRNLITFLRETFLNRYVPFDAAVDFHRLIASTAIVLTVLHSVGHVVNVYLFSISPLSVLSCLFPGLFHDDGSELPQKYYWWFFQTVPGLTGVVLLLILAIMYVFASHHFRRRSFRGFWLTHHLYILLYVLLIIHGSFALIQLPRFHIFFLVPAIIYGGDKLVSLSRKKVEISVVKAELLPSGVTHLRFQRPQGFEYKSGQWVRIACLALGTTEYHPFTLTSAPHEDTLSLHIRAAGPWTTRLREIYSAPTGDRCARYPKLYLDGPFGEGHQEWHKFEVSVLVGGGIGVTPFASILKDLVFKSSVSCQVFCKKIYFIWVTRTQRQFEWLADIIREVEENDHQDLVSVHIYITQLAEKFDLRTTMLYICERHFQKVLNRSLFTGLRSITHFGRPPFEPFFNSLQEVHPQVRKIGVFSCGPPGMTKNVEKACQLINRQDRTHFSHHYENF

For `O=C(Nc1nnc(-c2ccccc2)o1)c1ccc(F)c(C(F)(F)F)c1` [CRB-2131, 4‐fluoro‐N‐(5‐phenyl‐1,3,4‐oxadiazol‐2‐yl)‐3‐(trifluoromethyl) benzamide], the IC50 in assay [1], in assay [2], in [3], in assay [4], in assay [5] and in [6] was 200 to 300 nM each time.

On to `c1ccc2c(c1)[I+]c1ccccc1-2` [DPI, Diphenyleneiodonium chloride], for which the “lucigenin chemiluminescence with Drosophila membranes expressing human Nox2” value in assay [7] is on record as “DPI exhibited low Nox inhibitory activity, while GSK2795039 showed very minimal inhibition”. In addition, in assay [8], the “lucigenin chemiluminescence with Drosophila membranes expressing human Nox4” value is on record as “DPI exhibited low Nox inhibitory activity, while GSK2795039 showed very minimal inhibition”. The “lucigenin chemiluminescence with Drosophila membranes expressing human Nox1” value in [9] is “DPI exhibited low Nox inhibitory activity, while GSK2795039 showed very minimal inhibition”.
